Measurements reported in patent US20080262082A1, “COMPOSITION CONTAINING S-(-)-TULIPALIN B OR ACETYLATED-S-(-)-TULIPALIN B” (BIO SPECTRUM, INC., priority 2007, published 2008).
Like-named read-outs stand apart in the source and are kept apart here.

Columns and labels:
Type in all cases: cell-based
[1] = tested on: Salmonella enteritidis KCTC 12400; assay: Agar diffusion antibacterial test (aerobic); conditions: S. enteritidis
[2] = tested on: Bordetella bronchiseptica KCCM 21998; assay: Agar diffusion antibacterial test (aerobic); conditions: B. bronchiseptica
[3] = tested on: Propionibacterium granulosum ATCC 25564; assay: MIC by broth dilution method; conditions: P. granulosum, 37° C., 24 hours
[4] = tested on: Bordetella bronchiseptica KCCM 21998; assay: MIC by broth dilution method; conditions: B. bronchiseptica, 37° C., 24 hours
[5] = tested on: Propionibacterium acne ATCC 6919; assay: Agar diffusion antibacterial test (anaerobic); conditions: P. acne
[6] = tested on: Campylobacter jejuni KCTC 5327; assay: Agar diffusion antibacterial test (anaerobic); conditions: C. jejuni
[7] = tested on: Bacteroides fragilis KCTC 3688; assay: Agar diffusion antibacterial test (anaerobic); conditions: B. fragilis
[8] = tested on: Helicobacter pylori KCTC 5335; assay: Agar diffusion antibacterial test (anaerobic); conditions: H. pylori
[9] = tested on: Bacillus subtilis KCTC 1021; assay: Agar diffusion antibacterial test (aerobic); conditions: B. subtilis
[10] = tested on: Escherichia coli KCTC 1039; assay: Agar diffusion antibacterial test (aerobic); conditions: E. coli
[11] = tested on: Salmonella typhimurium KCTC 2514; assay: Agar diffusion antibacterial test (aerobic); conditions: S. typhimurium
[12] = tested on: Yersinia enterocolitica KCCM 41657; assay: MIC by broth dilution method; conditions: Y. enterocolitica, 37° C., 24 hours
[13] = tested on: Clostridium dificile KCCM 12115; assay: Agar diffusion antibacterial test (anaerobic); conditions: C. difficile
[14] = tested on: Legionella pneumophila KCCM 41779; conditions: L. pneumophila
[15] = tested on: Corynebacterium glutamicum KCTC 1445; assay: Agar diffusion antibacterial test (anaerobic); conditions: C. glutamicum
[16] = tested on: Corynebacterium glutamicum KCTC 1445; assay: MIC by broth dilution method; conditions: C. glutamicum, 37° C., 24 hours
[17] = tested on: Moraxella catarrhalis KCCM 40056; assay: Agar diffusion antibacterial test (aerobic); conditions: M. catarrhalis
[18] = tested on: Actiinobacillus ureae KCTC 2674; assay: MIC by broth dilution method; conditions: A. ureae, 37° C., 24 hours

C=C1C(=O)OC[C@H]1O [S-(−)-tulipalin B, (4S)-4-hydroxy-3-methylene-oxolan-2-one]
Inhibitory zone diameter ([1]; treatment concentration 0.03%): 11 mm | Inhibitory zone diameter ([1]; treatment concentration 0.1%): 13 mm | Inhibitory zone diameter ([1]; treatment concentration 0.3%): 16.5 mm | Inhibitory zone diameter ([1]; treatment concentration 1.0%): 20 mm | Inhibitory zone diameter ([2]; treatment concentration 0.03%): 12 mm | Inhibitory zone diameter ([2]; treatment concentration 0.1%): 14 mm | Inhibitory zone diameter ([2]; treatment concentration 0.3%): 18 mm | Inhibitory zone diameter ([2]; treatment concentration 1.0%): 20 mm | MIC [3]: 0.03% | MIC [4]: 0.03% | Inhibitory zone diameter ([5]; treatment concentration 0.03%): 11 mm | Inhibitory zone diameter ([5]; treatment concentration 0.1%): 13 mm | Inhibitory zone diameter ([5]; treatment concentration 0.3%): 14 mm | Inhibitory zone diameter ([5]; treatment concentration 1.0%): 16 mm | Inhibitory zone diameter ([6]; treatment concentration 0.01%): 11.5 mm | Inhibitory zone diameter ([6]; treatment concentration 0.03%): 13 mm | Inhibitory zone diameter ([6]; treatment concentration 0.1%): 15 mm | Inhibitory zone diameter ([6]; treatment concentration 0.3%): 16 mm | Inhibitory zone diameter ([6]; treatment concentration 1.0%): 18 mm | Inhibitory zone diameter ([7]; treatment concentration 0.01%): 10.5 mm | Inhibitory zone diameter ([7]; treatment concentration 0.03%): 12 mm | Inhibitory zone diameter ([7]; treatment concentration 0.1%): 14 mm | Inhibitory zone diameter ([7]; treatment concentration 0.3%): 16 mm | Inhibitory zone diameter ([7]; treatment concentration 1.0%): 18 mm | Inhibitory zone diameter ([8]; treatment concentration 0.01%): 10.5 mm | Inhibitory zone diameter ([8]; treatment concentration 0.03%): 12 mm | Inhibitory zone diameter ([8]; treatment concentration 0.1%): 14 mm | Inhibitory zone diameter ([8]; treatment concentration 0.3%): 16 mm | Inhibitory zone diameter ([8]; treatment concentration 1.0%): 18 mm | Inhibitory zone diameter ([9]; treatment concentration 0.03%): 11 mm | Inhibitory zone diameter ([9]; treatment concentration 0.1%): 13 mm | Inhibitory zone diameter ([9]; treatment concentration 0.3%): 15 mm | Inhibitory zone diameter ([9]; treatment concentration 1.0%): 17 mm | Inhibitory zone diameter ([10]; treatment concentration 0.01%): 10.5 mm | Inhibitory zone diameter ([10]; treatment concentration 0.03%): 11.5 mm | Inhibitory zone diameter ([10]; treatment concentration 0.1%): 13 mm | Inhibitory zone diameter ([10]; treatment concentration 0.3%): 16 mm | Inhibitory zone diameter ([10]; treatment concentration 1.0%): 20 mm | Inhibitory zone diameter ([11]; treatment concentration 0.03%): 11 mm | Inhibitory zone diameter ([11]; treatment concentration 0.1%): 13 mm | Inhibitory zone diameter ([11]; treatment concentration 0.3%): 17 mm | Inhibitory zone diameter ([11]; treatment concentration 1.0%): 20 mm | MIC [12]: 0.015% | Inhibitory zone diameter ([13]; treatment concentration 0.1%): 10.5 mm | Inhibitory zone diameter ([13]; treatment concentration 0.3%): 13 mm | Inhibitory zone diameter ([13]; treatment concentration 1.0%): 13 mm | Inhibitory zone diameter ([14]; treatment concentration 0.03%): 11 mm | Inhibitory zone diameter ([14]; treatment concentration 0.1%): 12 mm | Inhibitory zone diameter ([14]; treatment concentration 0.3%): 16 mm | Inhibitory zone diameter ([14]; treatment concentration 1.0%): 18 mm | Inhibitory zone diameter ([15]; treatment concentration 0.1%): 10.5 mm | Inhibitory zone diameter ([15]; treatment concentration 0.3%): 11 mm | Inhibitory zone diameter ([15]; treatment concentration 1.0%): 12 mm | MIC [16]: 0.10% | Inhibitory zone diameter ([17]; treatment concentration 0.03%): 11 mm | Inhibitory zone diameter ([17]; treatment concentration 0.1%): 11 mm | Inhibitory zone diameter ([17]; treatment concentration 0.3%): 15 mm | Inhibitory zone diameter ([17]; treatment concentration 1.0%): 18 mm | MIC [18]: 0.03%
